Consider 25 molecules from patent publication US20220232831A1, “NOVEL NON-CODING HETEROCYCLIC AMINO ACIDS (NCHAA) AND THEIR USE AS HERBICIDES” (Fortephest Ltd., priority 2019, published 2022).

For test [1], the system named is Romaine lettuce (Lactuca sativa L.) plants. The experiment in a line: Post-emergency herbicidal activity on Romaine lettuce plants. The class given is in vivo. The settings on record: Romaine lettuce at stage 2 to 3 leaves; compound in 0.1% Silwet, up to 0.5%; visual evaluation vs control plants. In outline:
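Plants at the 2 to 3 leaf stage were treated with compound in 0.1% aqueous Silwet at 0.0% (Control) to 0.5%, with 20 to 40 plants per test. Vigor, height and leaf color were scored 0 (dead) to 100 (healthy) at 7, 14 and 21 DAA, and aboveground wet weight was measured.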

Test [2] relates to Amaranthus blitoides (Pigweed). The experiment in a line: Herbicidal activity on development of weeds and crops (pot test). The conditions noted are these: 32 days after application, 0 = dead, 100% = healthy. The class given is in vivo. The protocol: (§1) The experiment included 225 pots. Weed seeds were sawn in 0.3-liter pots, containing medium-heavy clay-loam soil from Newe Ya'ar Research Center organic fields (55% clay, 23% silt, 20% sand, 2% organic matter, pH 7.1). The experiment was conducted in a completely randomized design. Each treatment was replicated 5 times (5 pots). The herbicides were applied at 200 L/ha with a motorized sprayer equipped with a Tee Jet 8001E nozzle (Spraying Systems Co., North Ave., Wheaton, Ill. 60188, USA) and operated at a pressure of 300 kPa. The pots were transferred to a glasshouse 24 hours after herbicide application and were sprinkler irrigated to field capacity of the soil. The plants were grown in the glasshouse during the entire experiment. Plant development at 6, 12, 19, 26 and 32 days after application (DAA) were evaluated on a scale of 0 to 100%, in which 0 represents dead plants and 100% represents healthy plants according to plant vigor, height, and leaf color.
(§2) Phalaris minor (Cannarygrass); Setaria verticillata (Bristlegrass); Solanum nigrum (Black nightshade) Sinapis arvensis (Mustard); Silybum marianum (Thistle); Chenopodium album (Lambsquarter); Amaranthus (Pigweed); Fodder corn; Avena sativa (Cultured oats.
(§3) Plant development was evaluated on a scale of 0 to 100%, in which 0 represents dead plants and 100% represents healthy plants according to plant vigor, height, and leaf color.

Test [3] concerns Avena sativa (Cultured oats). The test is described as above. The conditions noted are these: Avena sativa (crop); 32 days after application; 0 = dead, 100% = healthy. The format is in vivo. As to the method: as §1, §2, §3
The subject of test [4] is Chenopodium album (Lambsquarter). The test is described as above. The class given is in vivo. The conditions noted are these: 32 days after application, 0 = dead, 100% = healthy. As to the method: as §1, §2, §3
For test [5], the system named is Fodder Corn. The description is as above. The class given is in vivo. The settings on record: Fodder corn (crop); 32 days after application; 0 = dead, 100% = healthy. As to the method:
as §1, §2, §3

Test [6] relates to Phalaris minor (Cannarygrass). The test is described as above. The format is in vivo. The conditions noted are these: 32 days after application, 0 = dead, 100% = healthy. The protocol:
as §1, §2, §3

Test [7] concerns Setaria verticillata (Bristlegrass). The test is described as above. The format is in vivo. The conditions noted are these: 32 days after application, 0 = dead, 100% = healthy. As to the method:
as §1, §2, §3

Test [8] concerns Sinapis arvensis (Mustard). The test is described as above. The class given is in vivo. The settings on record: 32 days after application, 0 = dead, 100% = healthy. As to the method: as §1, §2, §3
The test system of test [9] is Solanum nigrum (Black nightshade). Described as above. The format is in vivo. The settings on record: 32 days after application, 0 = dead, 100% = healthy. The protocol:
as §1, §2, §3

The subject of test [10] is Marianum (Thistle). The description is as above. The class given is in vivo, Silybum marianum. The conditions noted are these: 32 days after application, 0 = dead, 100% = healthy. As to the method: as §1, §2, §3
The subject of test [11] is Seeds of Lettuce R. (Super-Jericho). Description: Filter paper bioassay with lettuce seeds (germination and early plant development). The format is in vivo. The settings on record: lettuce seeds on filter paper; 1, 0.1, 0.01, 0.001 mM; radicle and shoots assessed after 6 days. In outline: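 Lettuce seeds (10 per plate) were placed on filter paper with 2.0 ml water or test material at 1, 0.1, 0.01 or 0.001 mM. Plates were kept dark for 48 h, then grown 4 days at 22° C under a 6/18 dark/light cycle. At day 6, radicle and shoot development was scored visually; MEC is the lowest concentration causing deviation from control.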

Take `NC(Cc1ccnc(Br)c1)C(=O)O` (centres unmarked) [Code 632, 2-amino-3-(2-bromopyridin-4-yl)propanoic acid]: in test [1], the “post-emergency herbicidal activity (Activity Index: plant's development vs Control)” value is “Maximal (Less than 15)”. Further, the “Plants' Development (% of Control group) following treatment with NCHAAs” value is listed as 100% in [2]; 100% in test [3]; 20% in [4]; 100% in test [5]; 10% in test [6]; 20% in test [7]. Further, the “Plants' Development (% of Control group) following treatment with NCHAAs” value in [8] came to 80%; in [9], 25%; in test [10], 15%. The “Minimal Effective Concentration (MEC) as activity score, seeds germination & early plants development” value (“Minimal Effective Concentration (MEC)” for short) in test [11] is reported as “Strong (0.1 mM)”.

As to `NC(Cc1cncc(F)c1)C(=O)O` (centres unmarked) [Code 626], in [1], the “post-emergency herbicidal activity (Activity Index: plant's development vs Control)” value is “Strong (From 25 to 50)”. In addition, the “Minimal Effective Concentration (MEC)” value in [11] is listed as “Strong (0.1 mM)”.

Turning to `NC(Cc1cc[nH]c(=O)c1)C(=O)O` (centres unmarked) [Code 642], in test [1], the “post-emergency herbicidal activity (Activity Index: plant's development vs Control)” value was “Weak (More than 75)”. Moreover, the “Minimal Effective Concentration (MEC)” value in test [11] is given as “Weak (More than 1 mM)”.

On to `NC(Cc1cc(Cl)sc1Cl)C(=O)O` (centres unmarked) [Code 517, 2-amino-3-(2,5-dichlorothiophen-3-yl)propanoic acid], for which, in test [1], the “post-emergency herbicidal activity (Activity Index: plant's development vs Control)” value is listed as “Maximal (Less than 15)”. Further, the “Plants' Development (% of Control group) following treatment with NCHAAs” value in test [2] worked out at 10%; in test [3], 100%; in test [4], 10%; in [5], 90%; in test [6], 60%; in test [7], 100%. Moreover, the entries for the “Plants' Development (% of Control group) following treatment with NCHAAs” value in test [8], in test [9] and in test [10] were 0%, 15% and 35%, respectively. Further, in test [11], the “Minimal Effective Concentration (MEC)” value is “Maximal (0.01 mM and less)”.

Turning to `NC(CC1CCS(=O)(=O)C1)C(=O)O` (centres unmarked) [Code 561], the “post-emergency herbicidal activity (Activity Index: plant's development vs Control)” value in test [1] was “Weak (More than 75)”. Moreover, the “Minimal Effective Concentration (MEC)” value in test [11] is “Weak (More than 1 mM)”.

As for `NC(Cc1ccc[nH]1)C(=O)O` (centres unmarked) [Code 703], the “post-emergency herbicidal activity (Activity Index: plant's development vs Control)” value in test [1] is “Weak (More than 75)”. For the same molecule, in test [11], the “Minimal Effective Concentration (MEC)” value is “Weak (More than 1 mM)”.

Take `NC(Cc1cc(Br)nc(Br)c1)C(=O)O` (centres unmarked) [Code 634]: the “post-emergency herbicidal activity (Activity Index: plant's development vs Control)” value in test [1] is “Very Strong (From 15 to 25)”. The “Minimal Effective Concentration (MEC)” value in test [11] is listed as “Strong (0.1 mM)”.

With `NC(Cc1ncns1)C(=O)O` (centres unmarked) [Code 532], in [1], the “post-emergency herbicidal activity (Activity Index: plant's development vs Control)” value was “Moderate (From 50 to 75)”. In addition, the “Minimal Effective Concentration (MEC)” value in test [11] was “Strong (0.1 mM)”.

`CCOC(=O)C(Cc1csc[n+]1C)NC(C)=O.[Cl-]` (centres unmarked) [Code 576]: the “post-emergency herbicidal activity (Activity Index: plant's development vs Control)” value in test [1] was “Maximal (Less than 15)”. The “Minimal Effective Concentration (MEC)” value in test [11] was “Moderate (1 mM)”.

On to `NC(Cc1ccnnc1)C(=O)O` (centres unmarked) [Code 601], for which, in test [1], the “post-emergency herbicidal activity (Activity Index: plant's development vs Control)” value is reported as “Weak (More than 75)”. Also, the “Minimal Effective Concentration (MEC)” value in test [11] is “Weak (More than 1 mM)”.

For `NC(Cc1cnc(Br)c(Br)c1)C(=O)O` (centres unmarked) [Code 633], in [1], the “post-emergency herbicidal activity (Activity Index: plant's development vs Control)” value is listed as “Strong (From 25 to 50)”. For the same molecule, the “Minimal Effective Concentration (MEC)” value in [11] is recorded as “Strong (0.1 mM)”.

For the molecule `Cc1c(Cl)sc(Cl)c1S(=O)(=O)NCC(N)C(=O)O` (centres unmarked) [Code 515], the “post-emergency herbicidal activity (Activity Index: plant's development vs Control)” value in test [1] is listed as “Weak (More than 75)”. In addition, the “Minimal Effective Concentration (MEC)” value in test [11] is “Weak (More than 1 mM)”.

For the molecule `CCCOCCOC(=O)C(N)CNS(=O)(=O)c1cc(Cl)sc1Cl` (centres unmarked) [Code 525], in [1], the “post-emergency herbicidal activity (Activity Index: plant's development vs Control)” value is “Weak (More than 75)”. Further, the “Minimal Effective Concentration (MEC)” value in test [11] is on record as “Weak (More than 1 mM)”.

For the molecule `COC(=O)C(N)Cc1cc(Br)nc(Br)c1` (centres unmarked) [Code 670], in test [1], the “post-emergency herbicidal activity (Activity Index: plant's development vs Control)” value is on record as “Very Strong (From 15 to 25)”. Also, the “Minimal Effective Concentration (MEC)” value in [11] is recorded as “Strong (0.1 mM)”.

Turning to `NC(Cc1ccoc1)C(=O)O` (centres unmarked) [Code 534], the “post-emergency herbicidal activity (Activity Index: plant's development vs Control)” value in test [1] is recorded as “Strong (From 25 to 50)”. For the same molecule, in test [11], the “Minimal Effective Concentration (MEC)” value is listed as “Moderate (1 mM)”.

With `NC(Cc1cncc(C(F)(F)F)c1)C(=O)O` (centres unmarked) [Code 637], the “post-emergency herbicidal activity (Activity Index: plant's development vs Control)” value in test [1] is given as “Weak (More than 75)”. In addition, the “Minimal Effective Concentration (MEC)” value in [11] was “Strong (0.1 mM)”.

With `NC(Cc1csc([N+](=O)[O-])c1)C(=O)O` (centres unmarked) [Code 553], in test [1], the “post-emergency herbicidal activity (Activity Index: plant's development vs Control)” value is on record as “Weak (More than 75)”. Also, the “Minimal Effective Concentration (MEC)” value in [11] was “Weak (More than 1 mM)”.

`Cc1nc(N)c(CC(N)C(=O)O)c(O)n1` (centres unmarked) [Code 669]: the “post-emergency herbicidal activity (Activity Index: plant's development vs Control)” value in [1] is given as “Weak (More than 75)”. Also, the “Minimal Effective Concentration (MEC)” value in test [11] is given as “Weak (More than 1 mM)”.

For the molecule `NC(Cc1cnsn1)C(=O)O` (centres unmarked) [Code 529], the “post-emergency herbicidal activity (Activity Index: plant's development vs Control)” value in test [1] was “Moderate (From 50 to 75)”. Moreover, the “Minimal Effective Concentration (MEC)” value in test [11] was “Strong (0.1 mM)”.

For `COC(=O)C(N)Cc1ccsc1` (centres unmarked) [Code 546], the “post-emergency herbicidal activity (Activity Index: plant's development vs Control)” value in test [1] was “Very Strong (From 15 to 25)”. In addition, the “Minimal Effective Concentration (MEC)” value in test [11] is “Maximal (0.01 mM and less)”.

Take `Cl.NC(Cc1ccnc(C(F)(F)F)c1)C(=O)O` (centres unmarked) [Code 679]: the “post-emergency herbicidal activity (Activity Index: plant's development vs Control)” value in [1] was “Strong (From 25 to 50)”. The “Minimal Effective Concentration (MEC)” value in test [11] is “Strong (0.1 mM)”.

For the molecule `NC(Cc1cc(=O)[nH]c(=O)[nH]1)C(=O)O` (centres unmarked) [Code 652], the “post-emergency herbicidal activity (Activity Index: plant's development vs Control)” value in test [1] is “Weak (More than 75)”. Also, the “Minimal Effective Concentration (MEC)” value in test [11] is “Weak (More than 1 mM)”.

On to `NC(Cc1csc(C(F)(F)F)c1)C(=O)O` (centres unmarked) [Code 556], for which the “post-emergency herbicidal activity (Activity Index: plant's development vs Control)” value in test [1] is “Maximal (Less than 15)”. Besides, the “Minimal Effective Concentration (MEC)” value in test [11] is “Strong (0.1 mM)”.

As to `NC(Cc1c(F)cncc1F)C(=O)O` (centres unmarked) [Code 630], the “post-emergency herbicidal activity (Activity Index: plant's development vs Control)” value in test [1] is “Strong (From 25 to 50)”. The “Minimal Effective Concentration (MEC)” value in test [11] is recorded as “Moderate (1 mM)”.

Turning to `NC(Cc1cc(C(F)(F)F)cnc1Cl)C(=O)O` (centres unmarked) [Code 663], the “post-emergency herbicidal activity (Activity Index: plant's development vs Control)” value in test [1] is recorded as “Moderate (From 50 to 75)”. Besides, in [11], the “Minimal Effective Concentration (MEC)” value is recorded as “Strong (0.1 mM)”.
